Values joined by “and” are separate entries in the source; they are usually repeats but may differ in a detail not shown here. Identical values can stand only once. Like-named read-outs stand apart in the source and are kept apart here.
Assays:
MDA-MB-231 cells = test: Quantitative phase imaging (QPI) growth response, MDA-MB-231; assay type: cell-based; parameters: DoR QPI: scale not given here; ToR 20 μM: unit not given here; conditions: for Max Asymptote / Min Asymptote: MDA-MB-231, 4-parameter Hill fit of mean SGR vs concentration, one line per replicate; for EC50: Homo sapiens
Text: (§1) In some embodiments, breast cancer cell lines are imaged, representing diverse clinical subtypes, summarized in Table 2 below, using a QPI microscope (FIG. 1A) based on differential phase contrast (DPC) microscopy and phase reconstruction via a QPI microscope system. DPC is used for image acquisition and phase reconstruction because DPC's flexible design may be customized for high throughput phase measurements. […] As illustrated in the embodiment of FIG. 1A, a QPI microscope system 100 conducts assays in a 96-well plate (e.g., a well-plate 105) with 6-point dose response curves and up to five therapies in triplicate including solvent controls, summarized in Table 4 below. As described below, in reference to FIG. 1A, a growth response of cells is measured noninvasively using QPI via a QPI microscope system 110 before being assayed using a CTG reader 115.
(§2) FIG. 1B illustrates a timeline plot 200 showing two plates (e.g., two, separate well-plates 105) set up in parallel to measure cell viability. With reference to FIG. 1B, two plates are set-up simultaneously for each experiment. A first plate 205 is incubated for 27 hours (h) post drug exposure prior to CTG analysis (3 h equilibration+24 h of imaging), which measures cell adenosine triphosphate (ATP) content as a surrogate for cell viability. A second plate 210 is imaged for 72 h after 3 h equilibration (e.g., 75 h) and followed by CTG. […] The imaging locations are imaged for 72 h, as shown by images 1700-1715 of FIG. 7.
(§3) In some embodiments, a dose-dependent change in growth, as indicated by a change in the rate of mass accumulation or loss, is a parameter that can be extracted from QPI dose-response data. […] Individual specific growth rate measurements are indicated by points in the distribution of the graph 1200 of FIG. 2A. Blue is indicative of the DMSO control and red is indicative of doxorubicin. The black outline is a kernel density function fit to the distribution of specific growth rates for each condition (e.g., *p<0.05, **p<0.01). In some embodiments, the average SGR of each condition is fit to a sigmoid dose-response curve using a Hill equation. For example, computed logistic fit parameters using a 4-parameter Hill model via the QPI microscope system 110 for all conditions are summarized in Tables 5-8 below. To determine if there is a response, as illustrated by FIG. 2B, the QPI microscope system 110 tests goodness of fit, adjusts for degrees of freedom using an F-test at significance p<0.01 by comparison to a flat line, as an indicator of no response. For cases with a better fit to the Hill equation, the 4-parameter Hill curve may be used by the QPI microscope system 110 to determine the EC50, a measure of sensitivity to therapy because it represents the effective concentration at which 50% of the cells respond to therapy, as illustrated by FIG. 10. […] A 4-parameter Hill curve is fit to each dose response plot to extract the depth of response and EC50 for each cell/drug pair. A flat line represents no response due to failure of the F-test to reject the null hypothesis that the logistic fit is indistinguishable from a flat line. […] Each color indicates a different drug or therapy used.

BT-474 cells [1] = test: cells; conditions: for Max Asymptote / Min Asymptote: BT-474, 4-parameter Hill fit of mean SGR vs concentration, one line per replicate; for EC50: Homo sapiens
Text: as §1, §2, §3

MCF-7 cells [2] = test: cells; conditions: for Max Asymptote / Min Asymptote: MCF-7, 4-parameter Hill fit of mean SGR vs concentration, one line per replicate; for Hill Slope: MCF-7, Hill fit; for EC50: Homo sapiens
Text: as §1, §2, §3

MCF-7 cells [3] = test: CellTiter-Glo (CTG) ATP viability assay, MCF-7; assay type: cell-based; conditions: for Min Asymptote: MCF-7, Hill fit of luminescence normalized to solvent control, one line per replicate
Method: (§4) CTG (e.g., read by the CTG reader 115) is a cell viability assay that quantifies the amount of ATP present at the end of an experiment as an indicator of the number of live cells. The electronic controller 155 measures ATP content in each condition as a readout by a luminescent signal, which is normalized by the luminescence of the control (e.g., a control well) to determine cell viability relative to on-plate controls. In some embodiments, the CTG assay is performed by first removing 100 μL of media from each well on the well-plate 105, which is then replaced with an equal amount of CellTiter-Glo reagent (e.g., Promega, G7572). Assayed plates may be shaken at 500 RPM for 20 minutes and allowed to rest for 10 minutes. In some instances, 100 μL of volume from each well is transferred to a white 96-well plate (e.g., Perkin Elmer, 6005680). The electronic controller 155 collects luminescence data from each well using an Envision plate reader (e.g., Perkin Elmer) and normalized against the solvent control to measure ATP content. The electronic controller 155 fits a 4-parameter hill curve to the dose response to determine the EC50 and depth of response.

BT-474 cells [4] = test: CellTiter-Glo (CTG) ATP viability assay, BT-474; assay type: cell-based
Method: as §4

**Q.** For C[C@]12CC[C@@H]3c4ccc(O)cc4C[C@@H](CCCCCCCCC[S+]([O-])CCCC(F)(F)C(F)(F)F)[C@H]3[C@@H]1CC[C@@H]2O (stereo partly drawn) [Fulvestrant], which “Max Asymptote” value (MDA-MB-231 cells; 24 h QPI) is on record?
**A.** 0.02847

**Q.** What about the “Min Asymptote” value (MDA-MB-231 cells; 24 h QPI) of the same compound?
**A.** 0.02401

**Q.** What about the “Hill Slope” value (MDA-MB-231 cells; 24 h QPI, MDA-MB-231, Hill fit) of the same compound?
**A.** 2.2482

**Q.** And the “Max Asymptote” value (MDA-MB-231 cells; 72 h QPI)?
**A.** 0.01423 and 0.00907

**Q.** What about the “Min Asymptote” value (MDA-MB-231 cells; 72 h QPI) of the same compound?
**A.** 0.02796 and 0.03032

**Q.** And the “Hill Slope” value (MDA-MB-231 cells; 72 h QPI, MDA-MB-231, Hill fit)?
**A.** 1.492 and 0.9134

**Q.** What about the EC50 (MDA-MB-231 cells; MDA-MB-231, 24 h, 24 h QPI, MDA-MB-231, Hill fit, EC50 in μM per Table 1, read-out: log10(EC50) (converted)) of the same compound?
**A.** 3.43 µM

**Q.** What about the EC50 (MDA-MB-231 cells; MDA-MB-231, MDA-MB-231 cell line, EC50 of the standard deviation, read-out: EC50, SD (converted)) of the same compound?
**A.** 3.32 µM

**Q.** And the EC50 (MDA-MB-231 cells; MDA-MB-231, MDA-MB-231 cell line, QPI growth rate, read-out: EC50, QPI)?
**A.** 11.4 µM

**Q.** What about the “DoR QPI” value (MDA-MB-231 cells; MDA-MB-231 cell line, depth of response, QPI) of the same compound?
**A.** 0.6

**Q.** And the “ToR 20 μM” value (MDA-MB-231 cells; MDA-MB-231 cell line, time of response at 20 μM)?
**A.** 14.4

**Q.** What about the “Max Asymptote” value (BT-474 cells [1]; 24 h QPI) of the same compound?
**A.** 0.01059

**Q.** And the “Min Asymptote” value (BT-474 cells [1]; 24 h QPI)?
**A.** 0.007383

**Q.** And the “Hill Slope” value (BT-474 cells [1]; 24 h QPI, BT-474, Hill fit)?
**A.** 0.5448

**Q.** What about the “Max Asymptote” value (BT-474 cells [1]; 72 h QPI) of the same compound?
**A.** 0.006153 and 0.002199 and 0.003561

**Q.** What about the “Min Asymptote” value (BT-474 cells [1]; 72 h QPI) of the same compound?
**A.** 0.009854 and 0.008492 and 0.009456

**Q.** And the “DoR QPI” value (BT-474 cells [1]; BT-474 cell line, depth of response, QPI)?
**A.** 0.6

**Q.** What about the “ToR 20 μM” value (BT-474 cells [1]; BT-474 cell line, time of response at 20 μM) of the same compound?
**A.** 28.9

**Q.** And the EC50 (BT-474 cells [1]; BT-474, 24 h, read-out: log10(EC50), 24 h QPI, BT-474, Hill fit (converted), EC50 in μM per Table 1)?
**A.** 13.7 µM

**Q.** And the EC50 (BT-474 cells [1]; BT-474, read-out: EC50, QPI, BT-474 cell line, QPI growth rate)?
**A.** 11.6 µM

**Q.** What about the EC50 (BT-474 cells [1]; BT-474, read-out: EC50, SD, BT-474 cell line, EC50 of the standard deviation) of the same compound?
**A.** 8.17 µM

**Q.** What about the “Max Asymptote” value (MCF-7 cells [2]; 24 h QPI) of the same compound?
**A.** 0.04169

**Q.** And the “Min Asymptote” value (MCF-7 cells [2]; 24 h QPI)?
**A.** 0.02021

**Q.** And the “Hill Slope” value (MCF-7 cells [2]; 24 h QPI)?
**A.** 0.4537

**Q.** What about the “Max Asymptote” value (MCF-7 cells [2]; 72 h QPI) of the same compound?
**A.** 0.01656 and 0.01573

**Q.** What about the “Min Asymptote” value (MCF-7 cells [2]; 72 h QPI) of the same compound?
**A.** 0.02377 and 0.02811

**Q.** And the “Hill Slope” value (MCF-7 cells [2]; 72 h QPI)?
**A.** 0.5562 and 0.7449

**Q.** And the EC50 (MCF-7 cells [2]; MCF7, 24 h, read-out: log10(EC50), 24 h QPI, MCF-7, Hill fit (converted), EC50 in μM per Table 1)?
**A.** 0.000875 µM

**Q.** And the EC50 (MCF-7 cells [2]; MCF7, read-out: EC50, QPI, MCF-7 cell line, QPI growth rate)?
**A.** 0.2 µM

**Q.** What about the “DoR QPI” value (MCF-7 cells [2]; MCF-7 cell line, depth of response, QPI) of the same compound?
**A.** 0.4

**Q.** What about the “ToR 20 μM” value (MCF-7 cells [2]; MCF-7 cell line, time of response at 20 μM) of the same compound?
**A.** 23.2

**Q.** What about the “cluster mass over time” value (MCF-7 cells [2]; small cluster of MCF-7 cells, 20 μM, 10 h to 72 h) of the same compound?
**A.** grow slowly at the beginning and end the experiment with a lower mass than they started with

**Q.** And the “Min Asymptote” value (MCF-7 cells [3]; 24 h CTG)?
**A.** 0.5189 and 0.9446

**Q.** And the “Min Asymptote” value (MCF-7 cells [3]; 72 h CTG)?
**A.** 0.76 and 0.7073 and 0.6956

**Q.** And the EC50 (MCF-7 cells [3]; Homo sapiens, MCF7, MCF-7 cell line, CellTiter-Glo, read-out: EC50, CTG (converted))?
**A.** 0.5 µM

**Q.** What about the “DoR CTG” value (MCF-7 cells [3]; MCF-7 cell line, depth of response, CellTiter-Glo) of the same compound?
**A.** 0.3

**Q.** What about the “Min Asymptote” value (BT-474 cells [4]; 72 h CTG, BT-474, Hill fit of luminescence normalized to solvent control, one line per replicate) of the same compound?
**A.** 0.1608 (2×) and 0.8009

**Q.** And the “DoR CTG” value (BT-474 cells [4]; BT-474 cell line, depth of response, CellTiter-Glo)?
**A.** 0.6

**Q.** What about the EC50 (BT-474 cells [4]; Homo sapiens, BT-474, BT-474 cell line, CellTiter-Glo, read-out: EC50, CTG) of the same compound?
**A.** 1340 µM

From patent publication US20250052985A1, “SYSTEM AND METHOD FOR QUANTITATIVE PHASE IMAGING FOR MULTI-PARAMETRIC SCREENING OF TUMOR THERAPY RESPONSE” (UNIVERSITY OF UTAH RESEARCH FOUNDATION, priority 2023, published 2025)
